Earlier results in patent US5385929A, “[(Hydroxyphenylamino) carbonyl] pyrroles” (Warner-Lambert Company, priority 1994, dated 1995).

System: biosynthesis of cholesterol
Conditions: qualitative; described in U.S. Pat. No. 5,273,995

CC(C)c1c(C(=O)Nc2ccccc2)c(-c2ccccc2)c(-c2ccc(F)cc2)n1CC[C@@H](O)C[C@@H](O)CC(=O)O [Compound of Patent 5,273,995 (open form), [R-(R*,R*)]-2-(4-fluorophenyl)-β,δ-dihydroxy-5-(1-methylethyl)-3-phenyl-4-[(phenylamino)carbonyl]-1H-pyrrole-1-heptanoic acid]
activity as a hypocholesterolemic agent: particularly active as a hypocholesterolemic agent
